Measurements from patent publication US8487121B2, “Chromane derivatives as TRPV3 modulators” (Glenmark Pharmaceuticals S.A., priority 2007, dated 2013).

Target: T1, Human TRPV3 (Homo sapiens, UniProt Q8NET8)
T1 construct: expressed in transfected cells; host or cells: CHO cells (G-418 selected)
T1 sequence (Q8NET8 1-790): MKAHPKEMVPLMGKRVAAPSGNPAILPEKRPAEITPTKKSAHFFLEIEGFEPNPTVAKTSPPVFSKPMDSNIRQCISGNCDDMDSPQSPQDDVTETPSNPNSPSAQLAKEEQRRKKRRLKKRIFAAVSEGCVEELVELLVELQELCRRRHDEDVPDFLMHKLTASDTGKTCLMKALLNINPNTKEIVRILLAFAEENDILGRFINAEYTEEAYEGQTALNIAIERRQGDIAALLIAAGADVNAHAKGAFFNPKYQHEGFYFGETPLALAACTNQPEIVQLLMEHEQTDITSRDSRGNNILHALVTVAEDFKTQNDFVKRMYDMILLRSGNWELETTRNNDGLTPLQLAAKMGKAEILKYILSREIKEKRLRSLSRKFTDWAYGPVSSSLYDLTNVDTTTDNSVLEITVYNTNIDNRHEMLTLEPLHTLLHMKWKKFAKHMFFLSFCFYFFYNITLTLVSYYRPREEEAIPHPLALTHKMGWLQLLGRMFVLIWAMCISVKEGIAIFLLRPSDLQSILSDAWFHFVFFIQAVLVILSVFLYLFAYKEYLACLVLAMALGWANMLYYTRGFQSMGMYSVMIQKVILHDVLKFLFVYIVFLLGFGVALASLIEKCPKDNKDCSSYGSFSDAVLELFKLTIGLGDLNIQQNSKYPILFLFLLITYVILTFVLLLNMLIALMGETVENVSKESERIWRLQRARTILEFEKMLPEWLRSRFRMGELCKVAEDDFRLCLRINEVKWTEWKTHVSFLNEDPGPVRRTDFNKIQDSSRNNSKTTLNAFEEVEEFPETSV
Experiment: 45Calcium uptake assay: inhibition of 2-APB induced cellular uptake of radioactive calcium
Format: cell-based
Conditions: human TRPV3 expressing CHO cells, 2-APB 500 μM; for inhibition at 1 µM: 1.0 μM compound, read-out: Percentage inhibition at 1.0 μM; for inhibition at 10 µM: 10.0 μM compound, read-out: Percentage inhibition at 10.0 μM
Excerpt: The illustrative examples of the present invention are screened for TRPV3 activity according to a modified procedure described in Toth, A. et al. Life Sciences (2003), 73, 487-498. The screening of the compounds can be carried out by other methods and procedures known to a person skilled in the art. Such screening methods may be found in Hu, H-Z., et al. J. Biol. Chem. (2004), 279, 35741-35748; Smith, G. D et al. Nature (2002), 418, 186-190 and Peier, A. M., et al. Science (2002), 296, 2046-2049.
Screening for TRPV3 Antagonist Using the ^45Calcium Uptake Assay:
The inhibition of TRPV3 receptor activation was followed as inhibition of 2-APB induced cellular uptake of radioactive calcium. Test compounds were dissolved in DMSO to prepare 20 mM stock and then diluted using plain medium with 0.1% BSA and 1.8 mM CaCl2 to get desired concentration. Final concentration of DMSO in the reaction was 0.5% (v/v). Human TRPV3 expressing CHO cells were grown in F-12 DMEM medium with 10% FBS, 1% penicillin-streptomycin solution, 400 μg/ml of G-418. Cells were seeded 24 h prior to the assay in 96 well plates so as to get ˜50,000 cells per well on the day of experiment. Cells were treated with test compounds for 10 minutes followed by addition of 2-APB at a final concentration of 500 μM and 5 μCi/ml ^45Ca^+2 for 4 minutes. Cells were washed and lysed using buffer containing 1% Triton X-100, 0.1% deoxycholate and 0.1% SDS. Radioactivity in the lysate was measured in Packardt Top count after addition of liquid scintillant.
Concentration response curves were plotted as a % of maximal response obtained in the absence of test antagonist. IC50 value was calculated from concentration response curve by nonlinear regression analysis using GraphPad PRISM software.
Percentage inhibition at concentrations of 1.0 μM and 10.0 μM are given in the table along with IC50 (nM) values for selected examples.

Row | SMILES | inhibition at 1 µM | inhibition at 10 µM | IC50
1 | Cc1cccc(CCC(=O)N[C@@H]2CC3(CCC3)Oc3ccc(Cl)cc32)c1OC1CCCC1 [Example 53, (4R)-6-Chloro-N-(3,4-dihydrospiro[chromene-2,1′-cyclobutan]-4-yl)-3-(2-cyclopentyloxy-3-methyl)phenylpropanamide] | 61.9% | 91.4% | 500 to 1000 nM
2 | Cc1cccc(CCC(=O)N[C@H]2CC3(CCC3)Oc3ccc(Cl)cc32)c1OC1CCCC1 [Example 54, (4S)-6-Chloro-N-(3,4-dihydrospiro[chromene-2,1′-cyclobutan]-4-yl)-3-(2-cyclopentyloxy-3-methyl)phenylpropanamide] | 36.2% | 63.6% | 
3 | COc1cccc(CCC(=O)NC2CC3(CCC3)Oc3ccc(Cl)cc32)c1OCc1ccccc1 (stereo not drawn) [Example 56, N-(6-Chloro-3,4-dihydrospiro[chromene-2,1′-cyclobutan]-4-yl)-3-(2-benzyloxy-3-methoxy)phenylpropanamide] | 57.5% | 87.5% | 
4 | CCCCOc1c(CCC(=O)NC2CC3(CCC3)Oc3c(Cl)cc(Cl)cc32)cccc1NS(C)(=O)=O (stereo not drawn) [Example 63, N-(6,8-Dichloro-3,4-dihydrospiro[chromene-2,1′-cyclobutan]-4-yl)-3-{2-butoxy-3-[(methylsulfonyl)amino]phenyl}propanamide] | 73.3% | 97% | 
5 | COc1ccc2ccccc2c1CCC(=O)N[C@@H]1CC2(CCC2)Oc2ccc(Cl)cc21 [Example 67] | 17% | 84.7% | 
6 | COc1ccc2ccccc2c1CCC(=O)N[C@H]1CC2(CCC2)Oc2ccc(Cl)cc21 [Example 68] | 70.6% | 91% | 500 to 1000 nM
7 | COc1ccc(CCC(=O)N[C@@H]2CC3(CCC3)Oc3ccc(Cl)cc32)c2ccccc12 [Example 69, N-[(4R)-6-Chloro-3,4-dihydrospiro[chromene-2,1′-cyclobutan]-4-yl)-3-(4-methoxy)-1-naphthylpropanamide] | 40.3% | 86.8% | 
8 | COc1ccc(CCC(=O)N[C@H]2CC3(CCC3)Oc3ccc(Cl)cc32)c2ccccc12 [Example 70, N-[(4S)-6-Chloro-3,4-dihydrospiro[chromene-2,1′-cyclobutan]-4-yl)-3-(4-methoxy)-1-naphthylpropanamide] | 66.1% | 91.2% | 500 to 1000 nM
9 | O=C(CCc1ccc2ccccc2c1)NC1CC2(CCC2)Oc2ccc(Cl)cc21 (stereo not drawn) [Example 73, N-(6-Chloro-3,4-dihydrospiro[chromene-2,1′-cyclobutan]-4-yl)-3-(2-naphthyl)propanamide] | 61.3% | 83.3% | 500 to 1000 nM
10 | COc1ccc2cc(CCC(=O)N[C@@H]3CC4(CCC4)Oc4ccc(Cl)cc43)ccc2c1 [Example 74] | 64.1% | 90.4% | 1000 to 2000 nM
11 | COc1ccc2cc(CCC(=O)N[C@H]3CC4(CCC4)Oc4ccc(Cl)cc43)ccc2c1 [Example 75] | 46.6% | 90.4% | 
12 | O=C(CCc1ccc2ccccc2n1)NC1CC2(CCC2)Oc2ccc(Cl)cc21 (stereo not drawn) [Example 76, N-(6-Chloro-3,4-dihydrospiro[chromene-2,1′-cyclobutan]-4-yl)-3-(quinolin-2-yl)propanamide] | 23.5% | 58.8% | 

More lines, now with the values ahead:

Row | inhibition at 1 µM | inhibition at 10 µM | IC50 | SMILES
13 | 30.3% | 84.3% |  | CC(C)Oc1c(CCC(=O)NC2CC3(CCC3)Oc3ccc(Cl)cc32)cccc1NS(C)(=O)=O (stereo not drawn) [Example 57, N-(6-Chloro-3,4-dihydrospiro[chromene-2,1′-cyclobutan]-4-yl)-3-{2-isopropoxy-3-[(methylsulfonyl)amino]phenyl}propanamide]
14 | 61.7% | 98.7% |  | CC(C)Oc1c(CCC(=O)NC2CC3(CCC3)Oc3c(Cl)cccc32)cccc1NS(C)(=O)=O (stereo not drawn) [Example 58, N-(8-Chloro-3,4-dihydrospiro[chromene-2,1′-cyclobutan]-4-yl)-3-{2-isopropoxy-3-[(methylsulfonyl)amino]phenyl}propanamide]
15 | 89.4% | 96.3% | < 500 nM | COc1cccc(CCC(=O)NC2CC3(CCC3)Oc3c(Cl)cc(Cl)cc32)c1OC1CCCC1 (stereo not drawn) [Example 59, N-(6,8-Dichloro-3,4-dihydrospiro[chromene-2,1′-cyclobutan]-4-yl)-3-(2-cyclopentyloxy-3-methoxy)phenylpropanamide]
16 | 1.2% | 0% |  | COc1cccc(CCC(=O)NC2CC3(CCC3)Oc3c(Cl)cc(Cl)cc32)c1OCCN(C)C (stereo not drawn) [Example 60, N-(6,8-dichloro-3,4-dihydrospiro[chromene-2,1′-cyclobutan]-4-yl)-3-{[2-(dimethylamino)ethoxy-3-methoxy]phenyl}propanamide]
17 | 45.1% | 93.8% |  | CCCOc1c(CCC(=O)NC2CC3(CCC3)Oc3c(Cl)cc(Cl)cc32)cccc1NS(C)(=O)=O (stereo not drawn) [Example 61, N-(6,8-dichloro-3,4-dihydrospiro[chromene-2,1′-cyclobutan]-4-yl)-3-{2-propoxy-3-[(methylsulfonyl)amino]phenyl}propanamide]
18 | 13.5% | 82.2% |  | CC(C)Oc1ccc(NS(C)(=O)=O)cc1CCC(=O)NC1CC2(CCC2)Oc2c(Cl)cc(Cl)cc21 (stereo not drawn) [Example 62, N-(6,8-Dichloro-3,4-dihydrospiro[chromene-2,1′-cyclobutan]-4-yl)-3-{2-isopropoxy-5-[(methylsulfonyl)amino]phenyl}propanamide]
19 | 37.6% | 95.4% |  | CS(=O)(=O)Nc1cccc(CCC(=O)NC2CC3(CCC3)Oc3c(Cl)cc(Cl)cc32)c1OCC1CC1 (stereo not drawn) [Example 64, N-(6,8-Dichloro-3,4-dihydrospiro[chromene-2,1′-cyclobutan]-4-yl)-3-{2-(cyclopropylmethoxy)-3-[(methylsulfonyl)amino]phenyl}propanamide]
20 | 74.1% | 99.5% | 500 to 1000 nM | CC(C)Oc1c(CCC(=O)NC2CC3(CCC3)Oc3c(Cl)cc(Cl)cc32)cccc1NS(C)(=O)=O (stereo not drawn) [Example 65, N-(6,8-Dichloro-3,4-dihydrospiro[chromene-2,1′-cyclobutan]-4-yl)-3-{2-isopropoxy-3-[(methylsulfonyl)amino]phenyl}propanamide]
21 | 44.6% | 92.3% |  | O=C(CCc1cccc2ccccc12)NC1CC2(CCC2)Oc2ccc(Cl)cc21 (stereo not drawn) [Example 66, N-(6-Chloro-3,4-dihydrospiro[chromene-2,1′-cyclobutan]-4-yl)-3-(1-naphthyl)propanamide]
22 | 53.5% | 95.5% |  | O=C(CCc1ccc(OC(F)F)c2ccccc12)N[C@@H]1CC2(CCC2)Oc2ccc(Cl)cc21 [Example 71, (4R)-6-Chloro-N-(3,4-dihydrospiro[chromene-2,1′-cyclobutan]-4-yl)-3-(4-difluoro-methoxy-1-naphthyl)propanamide]
23 | 60.3% | 93.3% | 500 to 1000 nM | O=C(CCc1ccc(OC(F)F)c2ccccc12)N[C@H]1CC2(CCC2)Oc2ccc(Cl)cc21 [Example 72, (4S)-6-Chloro-N-(3,4-dihydrospiro[chromene-2,1′-cyclobutan]-4-yl)-3-(4-difluoromethoxy-1-naphthyl)propanamide]
